Source: US20100130737A1, “Regulating Agent of GPR34 Receptor Function” (TAKEDA PHARMACEUTICAL COMPANY LIMITED, priority 2005, published 2010)

A melting point of 214 °C was found for `O=C(O)CCNC(=O)C1(NC(=O)Cc2ccc(OCc3ccc(F)cc3)cc2)Cc2ccc(-c3ccc(Cl)cc3)cc2C1` (stereo not drawn) [Example B150, N-({5-(4-Chlorophenyl)-2-[({4-[(4-fluorobenzyl)oxy]phenyl}acetyl)amino]-2,3-dihydro-1H-inden-2-yl)carbonyl)-O-alanine] in this work. A melting point of 201 °C was found for `O=C(Cc1ccc(OCc2cccs2)cc1)NC1(C(=O)O)Cc2ccc(-c3ccc(Cl)cc3)cc2C1` (stereo not drawn) [Example B151, 5-(4-Chlorophenyl)-2-({[4-(2-thienylmethoxy)phenyl]acetyl}amino)indan-2-carboxylic acid] in this work. A melting point of 209 to 210 °C was found for `Cc1nc(COc2ccc(CC(=O)NC3(C(=O)O)Cc4ccc(-c5ccc(Cl)cc5)cc4C3)cc2)cs1` (stereo not drawn) [Example B152] in this work. A melting point of 204 to 205 °C was found for `O=C(Cc1ccc(OCc2c(Cl)cccc2Cl)cc1)NC1(C(=O)O)Cc2ccc(-c3ccc(Cl)cc3)cc2C1` (stereo not drawn) [Example B153] in this work. A melting point of 194 to 195 °C was found for `O=C(Cc1ccc(OC2CCc3ccccc32)cc1)NC1(C(=O)O)Cc2ccc(-c3ccc(Cl)cc3)cc2C1` (stereo not drawn) [Example B154, 5-(4-Chlorophenyl)-2-({[4-(2,3-dihydro-1H-inden-1-yloxy)phenyl]acetyl)amino)indan-2-carboxylic acid] in this work. A melting point of 233 to 234 °C was found for `O=C(Cc1ccc(OC2Cc3ccccc3C2)cc1)NC1(C(=O)O)Cc2ccc(-c3ccc(Cl)cc3)cc2C1` (stereo not drawn) [Example B155, 5-(4-Chlorophenyl)-2-({[4-(2,3-dihydro-1H-inden-2-yloxy)phenyl]acetyl}amino)indan-2-carboxylic acid] in this work. A melting point of 187 to 189 °C was found for `Cc1nc(COc2ccc(CC(=O)NC3(C(=O)O)Cc4ccc(-c5ccc(Cl)cc5)cc4C3)cc2)co1` (stereo not drawn) [Example B156, 5-(4-Chlorophenyl)-2-[({4-[(2-methyl-1,3-oxazol-4-yl)methoxy]phenyl}acetyl)amino]indan-2-carboxylic acid] in this work. A melting point of 258 to 259 °C was found for `Cc1nc2ccccc2n1Cc1ccc(C(=O)NC2(C(=O)O)Cc3ccc(-c4ccc(Cl)cc4)cc3C2)cc1` (stereo not drawn) [Example B157, 5-(4-Chlorophenyl)-2-({4-[(2-methyl-1H-benzimidazol-1-yl)methyl]benzoyl}amino)indan-2-carboxylic acid] in this work. A melting point of 241 to 243 °C was found for `O=C(Cc1ccc(Oc2nc3ccccc3s2)cc1)NC1(C(=O)O)Cc2ccc(-c3ccc(Cl)cc3)cc2C1` (stereo not drawn) [Example B158, 2-({[4-(1,3-Benzothiazol-2-yloxy)phenyl]acetyl}amino)-5-(4-chlorophenyl)indan-2-carboxylic acid] in this work. A melting point of 210 to 212 °C was found for `Cc1cccc(C)c1-c1ccc2c(c1)CC(NC(=O)Cc1ccc(OCc3ccc(F)cc3)cc1)(C(=O)O)C2` (stereo not drawn) [Example B160, 5-(2,6-Dimethylphenyl)-2-[({4-[(4-fluorobenzyl)oxy]phenyl}acetyl)amino]indan-2-carboxylic acid] in this work. A melting point of 232 to 234 °C was found for `O=C(Cc1ccc(Oc2ccc(F)cc2)cc1)NC1(C(=O)O)Cc2ccc(-c3ccc(Cl)cc3)cc2C1` (stereo not drawn) [Example B161, 5-(4-Chlorophenyl)-2-({[4-(4-fluorophenoxy)phenyl]acetyl}amino)indan-2-carboxylic acid] in this work. A melting point of 188 to 190 °C was found for `O=C(Cc1ccc(NCc2ccc(F)cc2)cc1)NC1(C(=O)O)Cc2ccc(-c3ccc(Cl)cc3)cc2C1` (stereo not drawn) [Example B162, 5-(4-Chlorophenyl)-2-[({4-[(4-fluorobenzyl)amino]phenyl}acetyl)amino]indan-2-carboxylic acid] in this work. A melting point of 128 °C was found for `O=C(Cc1ccc(OCc2ccncc2)cc1)NC1(C(=O)O)Cc2ccc(-c3ccc(Cl)cc3)cc2C1` (stereo not drawn) [Example B163, 5-(4-Chlorophenyl)-2-({[4-(pyridin-4-ylmethoxy)phenyl]acetyl}amino)indan-2-carboxylic acid] in this work. A melting point of 226 to 228 °C was found for `O=C(Cc1ccc(Oc2ccsc2)cc1)NC1(C(=O)O)Cc2ccc(-c3ccc(Cl)cc3)cc2C1` (stereo not drawn) [Example B164, 5-(4-Chlorophenyl)-2-({[4-(3-thienyloxy)phenyl]acetyl}amino)indan-2-carboxylic acid] in this work. A melting point of 200 to 201 °C was found for `Cc1noc(C)c1COc1ccc(CC(=O)NC2(C(=O)O)Cc3ccc(-c4ccc(Cl)cc4)cc3C2)cc1` (stereo not drawn) [Example B165] in this work. A melting point of 242 °C was found for `O=C(CC1CCN(C(=O)c2ccc(F)cc2)CC1)NC1(C(=O)O)Cc2ccc(-c3ccc(Cl)cc3)cc2C1` (stereo not drawn) [Example B166, 5-(4-Chlorophenyl)-2-({[1-(4-fluorobenzoyl)piperidin-4-yl]acetyl}amino)indan-2-carboxylic acid] in this work. A melting point of 196 °C was found for `O=C(CC1CCN(C(=O)Cc2ccc(F)cc2)CC1)NC1(C(=O)O)Cc2ccc(-c3ccc(Cl)cc3)cc2C1` (stereo not drawn) [Example B167, 5-(4-Chlorophenyl)-2-[({1-[(4-fluorophenyl)acetyl]piperidin-4-yl}acetyl)amino]indan-2-carboxylic acid] in this work. A melting point of 210 to 212 °C was found for `O=C(CCCSc1nc2ccccc2s1)NC1(C(=O)O)Cc2ccc(-c3ccc(Cl)cc3)cc2C1` (stereo not drawn) [Example B168, 2-{[4-(1,3-Benzothiazol-2-ylthio)-butanoyl]amino}-5-(4-chlorophenyl)indan-2-carboxylic acid] in this work. A melting point of 227 to 230 °C was found for `O=C(CSc1nc2ccccc2o1)NC1(C(=O)O)Cc2ccc(-c3ccc(Cl)cc3)cc2C1` (stereo not drawn) [Example B169, 2-{[(1,3-Benzoxazol-2-ylthio)acetyl]amino}-5-(4-chlorophenyl)indan-2-carboxylic acid] in this work. A melting point of 210 to 212 °C was found for `O=C(CCCSc1ccc2ccccc2c1)NC1(C(=O)O)Cc2ccc(-c3ccc(Cl)cc3)cc2C1` (stereo not drawn) [Example B170, 5-(4-Chlorophenyl)-2-{[4-(2-naphthylthio)butanoyl]amino}indan-2-carboxylic acid] in this work. A melting point of 223 to 225 °C was found for `O=C(CSc1ccc2ccccc2c1)NC1(C(=O)O)Cc2ccc(-c3ccc(Cl)cc3)cc2C1` (stereo not drawn) [Example B171, 5-(4-Chlorophenyl)-2-{[(2-naphthylthio)acetyl]amino)indan-2-carboxylic acid] in this work. A melting point of 215 °C was found for `O=C(CCSc1ccc2ccccc2c1)NC1(C(=O)O)Cc2ccc(-c3ccc(Cl)cc3)cc2C1` (stereo not drawn) [Example B172, 5-(4-Chlorophenyl)-2-{[3-(2-naphthylthio)propanoyl]amino}indan-2-carboxylic acid] in this work. A melting point of 231 to 233 °C was found for `COc1ccc(CC(=O)NC2(C(=O)O)Cc3ccc(-c4ccc(Cl)cc4)cc3C2)cc1` (stereo not drawn) [Example B173, 5-(4-Chlorophenyl)-2-{[(4-methoxyphenyl)acetyl]amino)indan-2-carboxylic acid] in this work. A melting point of 209 to 211 °C was found for `O=C(Cc1c[nH]c2ccccc12)NC1(C(=O)O)Cc2ccc(-c3ccc(Cl)cc3)cc2C1` (stereo not drawn) [Example B176] in this work. A melting point of 240 to 243 °C was found for `O=C(Cc1ccc(-c2ccccc2)cc1)NC1(C(=O)O)Cc2ccc(-c3ccc(Cl)cc3)cc2C1` (stereo not drawn) [Example B177, 2-[(Biphenyl-4-ylacetyl)amino]-5-(4-chlorophenyl)indan-2-carboxylic acid] in this work. A melting point of 189 °C was found for `O=C(Cc1ccccn1)NC1(C(=O)O)Cc2ccc(-c3ccc(Cl)cc3)cc2C1` (stereo not drawn) [Example B178, 5-(4-Chlorophenyl)-2-[(pyridin-2-ylacetyl)amino]indan-2-carboxylic acid] in this work. A melting point of 156 °C was found for `O=C(NC1(C(=O)O)Cc2ccc(-c3ccc(Cl)cc3)cc2C1)[C@@H](O)c1ccccc1` (stereo partly drawn) [Example B179, 5-(4-Chlorophenyl)-2-{[(2S)-2-hydroxy-2-phenylacetyl]amino}indan-2-carboxylic acid] in this work.
